From ChEMBL document CHEMBL4819085, “Dipyridyl-substituted thiosemicarbazone as a potent broad-spectrum inhibitor of metallo-β-lactamases” (Bioorg Med Chem, 2021)
In brackets after ≈: the same amount, converted by molar mass. Activity calls are given as the source filed them. The rule behind the calls is not given here.

Columns and labels:
Bacteria [1] = experiment: Inhibition of bacterial VIM-2 expressed in Escherichia coli BL21 (DE3) at 20 uM using meropenem as substrate incubated for 1 hr by spectrometry analysis relative to control
[2] = (§1) Inhibition of bacterial NDM-1 expressed in Escherichia coli BL21 (DE3) using meropenem as substrate incubated for 1 hr by spectrometry analysis; parameters: species or system Bacteria
Bacteria [3] = experiment: as §1
[4] = (§2) Inhibition of bacterial ImiS expressed in Escherichia coli BL21 (DE3) using meropenem as substrate incubated for 1 hr by spectrometry analysis; parameters: species or system Bacteria
Bacteria [5] = experiment: as §2
[6] = molecular target: Metallo-beta-lactamase type 2 (Klebsiella pneumoniae, UniProt C7C422); experiment: Inhibition of NDM-1 in Klebsiella pneumoniae using meropenem as substrate incubated for 0.5 hrs
Staphylococcus aureus = experiment: Antibacterial activity against methicillin-resistant Staphylococcus aureus assessed as reduction in bacterial growth incubated for 24 hrs by broth microdilution method; format: functional
Escherichia coli [7] = experiment: Antibacterial activity against Escherichia coli 01 assessed as reduction in bacterial growth incubated for 24 hrs by broth microdilution method; format: functional
Escherichia coli [8] = experiment: Antibacterial activity against Escherichia coli 08 assessed as reduction in bacterial growth incubated for 24 hrs by broth microdilution method; format: functional
Pseudomonas aeruginosa = experiment: Antibacterial activity against Carbapenem-resistant Pseudomonas aeruginosa assessed as reduction in bacterial growth incubated for 24 hrs by broth microdilution method; format: functional
Escherichia coli [9] = experiment: Inhibition of Escherichia coli NDM-1 assessed as potentiation of meropenem-induced antibacterial activity by measuring meropenem MIC incubated for 24 hrs by broth microdilution method
Escherichia coli [10] = experiment: Inhibition of Escherichia coli IMP-1 assessed as potentiation of meropenem-induced antibacterial activity by measuring meropenem MIC incubated for 24 hrs by broth microdilution method
Escherichia coli [11] = experiment: Antibacterial activity against Escherichia coli producing NDM-1 assessed as zone of inhibition in presence of meropenem (reference value: 23.5 millimeter); format: functional
Escherichia coli [12] = experiment: Antibacterial activity against Escherichia coli producing NDM-1 assessed as fractional inhibitory concentration index incubated for 24 hrs in presence of meropenem by checkerboard assay; format: functional
Escherichia coli [13] = experiment: Antibacterial activity against Escherichia coli producing ImiS assessed as fractional inhibitory concentration index incubated for 24 hrs in presence of meropenem by checkerboard assay; format: functional
Escherichia coli [14] = experiment: Antibacterial activity against Escherichia coli producing IMP-1 assessed as fractional inhibitory concentration index incubated for 24 hrs in presence of meropenem by checkerboard assay; format: functional, organism-based
Escherichia coli [15] = experiment: Bactericidal activity against Escherichia coli producing NDM-1 assessed as reduction in bacterial viability upto 64 ug/ml incubated for 12 hrs by time kill assay; format: functional; settings: dose microg/ml <=64
[16] = Cytotoxicity against African green monkey Vero E6 cells assessed as cell viability at 50 uM relative to control; format: cell-based, Vero C1008; settings: chlorocebus sabaeus, read-out: Activity
Klebsiella pneumoniae [17] = experiment: In vivo antibacterial activity against Klebsiella pneumoniae producing NDM-1 infected in mouse assessed as reduction in bacterial load in liver at 2 mg/kg, ip; format: functional, organism-based
Klebsiella pneumoniae [18] = experiment: In vivo antibacterial activity against Klebsiella pneumoniae producing NDM-1 infected in mouse assessed as reduction in bacterial load in spleen at 2 mg/kg, ip; format: functional, organism-based
Klebsiella pneumoniae [19] = experiment: In vivo antibacterial activity against Klebsiella pneumoniae producing NDM-1 infected in mouse assessed as reduction in bacterial load in spleen at 2 mg/kg, ip in presence of meropenem; format: functional, organism-based
Escherichia coli [20] = experiment: Potentiation of meropenem-induced antibacterial activity against Escherichia coli 24 assessed as fold reduction in meropenem MIC incubated for 24 hrs by broth microdilution method relative to meropenem alone; format: functional
Klebsiella pneumoniae [21] = experiment: Potentiation of meropenem-induced antibacterial activity against Klebsiella pneumoniae assessed as fold reduction in meropenem MIC incubated for 24 hrs by broth microdilution method relative to meropenem alone; format: functional
Escherichia coli [22] = experiment: Inhibition of Escherichia coli NDM-1 assessed as bacterial growth rate in presence of ZnCl2 and meropenem relative to control; parameters: scale not given: the % may be the effect or the level left

Sequence of Metallo-beta-lactamase type 2 (C7C422 whole entry): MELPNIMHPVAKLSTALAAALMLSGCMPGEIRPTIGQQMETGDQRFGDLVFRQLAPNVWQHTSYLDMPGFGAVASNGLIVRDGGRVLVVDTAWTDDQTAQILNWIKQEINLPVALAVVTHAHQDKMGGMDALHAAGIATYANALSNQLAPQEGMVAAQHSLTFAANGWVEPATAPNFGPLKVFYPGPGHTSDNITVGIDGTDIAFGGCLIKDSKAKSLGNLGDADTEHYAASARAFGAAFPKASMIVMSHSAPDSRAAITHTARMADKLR

CN(C(=S)NN=C(c1ccccn1)c1ccccn1)C1CCCCC1
inhibition (Bacteria [1]): > 90% | IC50 [2]: 21 nM | inhibition (Bacteria [3]): Dose-Dependent Effect | IC50 [4]: 75 nM | inhibition (Bacteria [5]): Dose-Dependent Effect | IC50 [6]: 13600 nM | MIC (Staphylococcus aureus): 32 µg/mL (≈ 90.5 µM) | MIC (Escherichia coli [7]): 16 µg/mL (≈ 45.3 µM) | MIC (Escherichia coli [8]): 16 µg/mL (≈ 45.3 µM) | MIC (Pseudomonas aeruginosa): 16 µg/mL (≈ 45.3 µM) | MIC (Escherichia coli [9]): 8 µg/mL | MIC (Escherichia coli [10]): 16 µg/mL | inhibition zone (IZ) (Escherichia coli [11]): 30.1 mm | FIC (Escherichia coli [12]): 0.313 | FIC (Escherichia coli [13]): 0.313 | Activity (Escherichia coli [14]): inactive | inhibition (INH) (Escherichia coli [15]): 99% | viability at 50 µM [16]: > 70% | inhibition (Klebsiella pneumoniae [17]): inactive | inhibition (Klebsiella pneumoniae [18]): inactive | inhibition (Klebsiella pneumoniae [19]): Active | fold change (FC) (Escherichia coli [20]): 2 | fold change (FC) (Klebsiella pneumoniae [21]): 8 | Activity (Escherichia coli [22]): 65%
